Source: article PMC5575475 (Angewandte Chemie (International Ed. in English), 2017)
Like-named read-outs stand apart in the source and are kept apart here.

Tests used:
[1] = target: 14‐3‐3β adapter protein (dimer) (UniProt P31946); experiment: fluorescence polarisation
[2] = target: 14‐3‐3β adapter protein (dimer) (UniProt P31946); experiment: fluorescence polarisation; remark: listed apart in the source
[3] = target: T1, 14-3-3β (Homo sapiens, UniProt P31946); format: binding
T1 sequence (P31946 1-246): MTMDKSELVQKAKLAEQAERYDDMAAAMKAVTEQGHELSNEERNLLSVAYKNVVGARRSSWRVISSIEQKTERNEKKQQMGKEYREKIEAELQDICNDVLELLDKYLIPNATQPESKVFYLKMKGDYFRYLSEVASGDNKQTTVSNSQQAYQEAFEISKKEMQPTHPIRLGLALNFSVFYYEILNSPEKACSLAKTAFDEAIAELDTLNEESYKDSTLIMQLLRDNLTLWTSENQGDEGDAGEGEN

[4] = target: T1, 14-3-3β; format: binding; conditions: at very low and very high FGG-ERα peptide concentrations
[5] = target: the molecule itself; experiment: crystal structure
[6] = FGG-ERα titration at constant Q8 concentrations

## FGG‐ERα phosphopeptide (15‐mer: N‐terminal FGG motif fused to the wild‐type 14‐3‐3‐binding epitope of estrogen receptor α)
[1]
  IC50: 1000 nM
[2]
  IC50: 70 nM

## Cucurbit[7]uril [Q7]
[3]; Q7 instead of Q8 (Figure 2E)
  enhancement of apparent affinity of FGG-ERα for 14-3-3: did not enhance the apparent affinity

## O=C1N2CN3C(=O)N4CN5C(=O)N6CN7C(=O)N8CN9C(=O)N%10CN%11C(=O)N%12CN%13C(=O)N%14CN%15C(=O)N%16CN1C1C2N2CN%17C(=O)N(CN%18C(=O)N(CN%19C(=O)N(CN%20C(=O)N(CN%21C(=O)N(CN%22C(=O)N(CN%23C(=O)N(CN1C2=O)C%16C%15%23)C%14C%13%22)C%12C%11%21)C%10C9%20)C8C7%19)C6C5%18)C4C3%17 (stereo not shown) [Q8, Cucurbit[8]uril]
[4]
  effect of Q8: negligible
[3]; [6]
  Q8 concentration at which the enhancement effect appears to saturate: approximately 10 μM
  combinatorial inhibition at high Q8 concentrations: no evidence of combinatorial inhibition

B1: truncated 14‐3‐3βΔC variant (domain or fragment)
chain: QGSMTMDKSELVQKAKLAEQAERYDDMAAAMKAVTEQGHELSNEERNLLSVAYKNVVGARRSSWRVISSIEQKTERNEKKQQMGKEYREKIEAELQDICNDVLELLDKYLIPNATQPESKVFYLKMKGDYFRYLSEVASGDNKQTTVSNSQQAYQEAFEISKKEMQPTHPIRLGLALNFSVFYYEILNSPEKACSLAKTAFDEAIAELDTLNEESYKDSTLIMQLLRDNLTLWTSENQGDEGDAGEGEN
[5]
  stoichiometry N: 2
